Each structure is given as a SMILES string. Active and inactive are the calls of the source. The rule behind the calls is not given here.

As usually defined, the IC50 is the concentration needed to halve the response being measured. For orientation: inhibition means the percentage by which the read-out fell short of the control. The term CC50 denotes the concentration giving 50% cytotoxicity. A high value points to lower toxicity to the cells.

The nature of data set [1]: in vitro. The following applies: monkey, Vero E6 cells.
Description: Selectivity index, ratio of CC50 for cytotoxicity against African green monkey Vero E6 cells to IC50 for anti-SARS-CoV-2 activity against SARS-CoV-2 NRC-03-nhCoV infected in African green monkey Vero E6 cells
Data set [2] has as its system SARS-CoV-2. In words: microbe, parasite or virus in culture. To be noted: Severe acute respiratory syndrome coronavirus 2, NRC-03-nhCoV, Vero C1008, 72 h.
Description: Anti-SARS-CoV-2 activity against SARS-CoV-2 NRC-03-nhCoV infected in African green monkey Vero E6 cells assessed as inhibition of viral replication incubated for 72 hrs by crystal violet staining based analysis
The target in data set [3] is Replicase polyprotein 1ab (Severe acute respiratory syndrome coronavirus 2) (UniProt P0DTD1). In words: Inhibition of SARS-CoV-2 recombinant RdRp at 50 ug/ml preincubated with enzyme for 15 mins followed by single stranded polyribonucleotide template and NTPs addition and measured after 2 hrs by fluorescence spectrometric analysis relative to control. To be noted: dose 50.0 µg/ml, time 135.0 min.

The test system of data set [4] is SARS-CoV-2. It counts as functional. The following applies: Severe acute respiratory syndrome coronavirus 2, Calu-3, 96 h; dose 30 nM; time 4 day.
A short description of data set [5]: Cytotoxicity against human Calu-3 cells. It counts as toxicity, cell-based.
In data set [6] the test system is SARS-CoV-2. It is filed as functional, Vero E6. To be noted: for inhibition at 10 µg/mL: Severe acute respiratory syndrome coronavirus 2, Vero C1008, 72 h, time 3 day.
Data set [7] has as its target Replicase polyprotein 1ab (Severe acute respiratory syndrome coronavirus 2, UniProt P0DTD1). In words: Inhibition of SARS-CoV-2 recombinant RdRp preincubated with enzyme for 15 mins followed by single stranded polyribonucleotide template and NTPs addition and measured after 2 hrs by fluorescence spectrometric analysis.
Data set [8] relates to SARS-CoV-2. It counts as functional, Vero E6. The following applies: for inhibition at 10 µg/mL: Severe acute respiratory syndrome coronavirus 2, Vero C1008, 96 h, time 4 day.
The subject of data set [9] is SARS-CoV-2. It is filed as functional, Vero E6. To be noted: Severe acute respiratory syndrome coronavirus 2, Vero C1008, 72 h, time 3 day.
Data set [10] deals with SARS-CoV-2. It is filed as functional. To be noted: Severe acute respiratory syndrome coronavirus 2, Calu-3, 96 h; dose 15 nM; time 4 day.
Data set [11] concerns SARS-CoV-2. Description: microbe, parasite or virus in culture. The following applies: Severe acute respiratory syndrome coronavirus 2, NRC-03-nhCoV, Calu-3, 72 h.
Description: Anti-SARS-CoV-2 activity against SARS-CoV-2 NRC-03-nhCoV infected in human Calu-3 cells expressing TMPRSS2 assessed as inhibition of viral replication incubated for 72 hrs by crystal violet staining based analysis

As to `N=C(N)Nc1ccc(C(=O)Nc2ncnc3[nH]cnc23)cc1`, the selectivity ratio in data set [1] came to 1. This compound also showed an IC50 in data set [2] of 22.8 nM.

Take `CC(C)c1cc(=O)oc2ccc(OC(=O)c3ccc(NC(=N)N)cc3)cc12`: the inhibition in data set [3] stood at 89%. Further, the inhibition at 0.03 µM in [4] was determined as 60%. This compound showed a CC50 in [5] of 450 nM. In addition, the values for the inhibition at 10 µg/mL in data set [6], in data set [8] and in data set [9] were 90.5%, 65% and 63.2%, respectively. Besides, the results for the IC50 in data set [7], in [11] and in data set [2] were 4.42 nM, 17.5 nM and 5.7 nM, respectively. In [10], this compound showed an inhibition at 0.015 µM of 45%.

In the case of `CCC(CC)COC(=O)[C@H](C)N[P@](=O)(OC[C@H]1O[C@@](C#N)(c2ccc3c(N)ncnn23)[C@H](O)[C@@H]1O)Oc1ccccc1` [REMDESIVIR], the inhibition in data set [3] turned out to be 73%. Besides, in data set [1], the selectivity ratio was 3.02. In data set [2], this compound registered a half-inhibitory concentration (IC50) of 55.6 nM.

Regarding `N#C[C@@]1(c2ccc3c(NC(=O)c4ccc(Nc5ncccn5)cc4)ncnn23)O[C@H](CO)[C@@H](O)[C@H]1O`, the inhibition in data set [3] was 77%. For the same compound, in data set [1], the selectivity ratio amounted to 2.64. In addition, the inhibition entry is “inactive” in data set [6] (Severe acute respiratory syndrome coronavirus 2, Vero E6, dose 10.0 µg/ml, time 3.0 day) and “inactive” in data set [8] (Severe acute respiratory syndrome coronavirus 2, Vero E6, dose 10.0 µg/ml, time 4.0 day). The IC50 in [7] came out at 32.4 nM; in data set [2], 19.7 nM. In [9], the inhibition at 10 µg/mL came out at 51.3%.

For `O=C(Nc1ccn(C2OC(CO)C(O)C2O)c(=O)n1)c1ccc(Nc2ncccn2)cc1` (stereo unspecified), the selectivity ratio in data set [1] came out at 7.18. In data set [2], this compound showed an IC50 of 52 nM.

Take `CC(C)(C)OC(=O)Nc1ccc(C(=O)Nc2ncnn3c([C@]4(C#N)O[C@H](CO)[C@@H](O)[C@H]4O)ccc23)cc1`: in [1], the selectivity ratio is 6.65. This compound also had an IC50 in data set [2] of 42.2 nM.

For the compound `CN(C)C(=O)COC(=O)Cc1ccc(OC(=O)c2ccc(NC(=N)N)cc2)cc1` [CAMOSTAT], in [4], the inhibition at 0.03 µM came to 80%. For the same compound, in data set [5], the 50% cytotoxic concentration (CC50) turned out to be 230 nM. In data set [10], this compound yielded an inhibition at 0.015 µM of 70%. The compound further registered an IC50 in data set [11] of 8.21 nM.

As to `N#C[C@@]1(c2ccc3c(NC(=O)c4ccc(NC(=N)N)cc4)ncnn23)O[C@H](CO)[C@@H](O)[C@H]1O`, the inhibition in data set [3] was 91.5%. Further, the inhibition at 10 µg/mL in data set [6] was determined as 51.4%; in data set [8], 44%; in data set [9], 66%. Besides, the figures for the IC50 in data set [7] and in [2] were 6.1 nM and 3.9 nM, respectively.

These data come from ChEMBL document CHEMBL5614378, “Novel compounds with dual inhibition activity against SARS-CoV-2 critical enzymes RdRp and human TMPRSS2” (Eur J Med Chem, 2024).
